Measured values reported in ChEMBL document CHEMBL5528001, “Synthetic product-based approach toward potential antileishmanial drug development” (Eur J Med Chem, 2024).

How the values were obtained:
[1] = test system: Leishmania donovani; assay: Antileishmanial activity against Leishmania donovani infected in BALB/c mouse model assessed as reduction in parasite growth at 75 mg/kg, po administered for 5 consecutive days; assay type: functional; design: scale not given: the % may be the effect or the level left
[2] = test system: Leishmania donovani; assay: Antileishmanial activity against Leishmania donovani MHOM/ET/67/HU3 intracellular amastigotes infected in human THP-1 cells assessed as inhibition of parasite growth incubated for 72 hrs by resazurin based colorimetric assay; assay type: functional, organism-based; conditions: MHOM/ET/67/HU3, THP-1, 72 h
[3] = test system: Leishmania major; assay: Antileishmanial activity against Leishmania major promastigotes; assay type: functional, organism-based
[4] = test system: Leishmania braziliensis; assay: Antileishmanial activity against Leishmania braziliensis promastigotes; assay type: functional, organism-based
[5] = Cytotoxicity against African green monkey Vero cells assessed as reduction in cell growth; assay type: toxicity, cell-based, Chlorocebus sabaeus
[6] = test system: Leishmania infantum; assay: Antileishmanial activity against Leishmania infantum MHOM/BR/70/BH46 promastigotes assessed as reduction in parasite growth incubated for 72 hrs by resazurin staining based analysis; assay type: functional, organism-based; conditions: MHOM/BR/70/BH46, 72 h
[7] = Cytotoxicity against African green monkey Vero cells assessed as reduction in cell viability measured after 96 hrs by MTS assay; assay type: toxicity, cell-based, Chlorocebus sabaeus
[8] = test system: Leishmania donovani; assay: Antileishmanial activity against Leishmania donovani MHOM/IN/95/9515 promastigotes assessed as inhibition of parasite proliferation measured for 48 hrs by resazurin dye-based analysis relative to control; assay type: functional; design: scale not given: the % may be the effect or the level left
[9] = test system: HepG2; assay: Antiproliferative activity against human HepG2 cells assessed as reduction in cell growth measured for 72 hrs by MTT assay; assay type: functional, cell-based; conditions: HepG2, 72 h
[10] = test system: HepG2; assay: Cytotoxicity against human HepG2 cells assessed as reduction in cell growth measured for 48 hrs by MTT assay; assay type: functional
[11] = test system: Leishmania infantum; assay: Antileishmanial activity against Leishmania infantum MON-1 promastigotes assessed as reduction in parasite viability measured after 48 hrs by MTT assay; assay type: functional, organism-based; conditions: MON-1, 48 h
[12] = Cytotoxicity against HEK293 cells assessed as reduction in cell growth incubated for 3 days by resazurin dye based analysis; assay type: toxicity; conditions: human, time 3 day
[13] = Cytotoxicity against human THP-1 cells assessed as reduction in cell growth incubated for 3 days by resazurin dye based analysis; assay type: toxicity; conditions: time 3 day
[14] = test system: Leishmania donovani; assay: Antileishmanial activity against Leishmania donovani promastigotes assessed as inhibition of cell growth measured after 3 days by resazurin/alamar blue-staining based analysis; assay type: functional, organism-based; conditions: 72 h
[15] = test system: Leishmania major; assay: Antileishmanial activity against Leishmania major promastigotes assessed as reduction in parasite growth incubated for 48 hrs by MTT assay; assay type: functional, organism-based
[16] = Cytotoxicity against mouse J774.A1 cells assessed as reduction in cell viability by MTT assay; assay type: toxicity, cell-based
[17] = Cytotoxicity against mouse Peritoneal macrophages assessed as reduction in cell viability incubated for 24 hrs by MTT assay; assay type: toxicity, cell-based, Peritoneal macrophage
[18] = test system: Leishmania infantum; assay: Antileishmanial activity against Leishmania infantum MHOM/BR/1972/LD intracellular amastigotes infected in mouse J774A.1 macrophages cells assessed as reduction in parasite viability after 72 hrs by MTT based analysis; assay type: functional, organism-based; conditions: J774.A1, 72 h
[19] = test system: Leishmania infantum; assay: Antileishmanial activity against Leishmania infantum promastigotes infected in BALB/c mouse macrophages assessed as reduction in parasite load in spleen at 7.7 mg/kg, po administered twice as day for 5 days relative to control; assay type: functional; design: scale not given: the % may be the effect or the level left; conditions: time 5 day
[20] = test system: Leishmania infantum; assay: Antileishmanial activity against Leishmania infantum promastigotes infected in BALB/c mouse macrophages assessed as reduction in parasite load in liver at 7.7 mg/kg, po administered twice as day for 5 days relative to control; assay type: functional; design: scale not given: the % may be the effect or the level left; conditions: time 5 day
[21] = test system: Leishmania tropica; assay: Antileishmanial activity against Leishmania tropica promastigotes incubated for 24 hrs measured by alamar blue staining based fluorescence analysis; assay type: functional, organism-based
[22] = Selectivity index, ratio of CC50 for human HepG2 cells to EC50 for GFP-expressing Leishmania infantum intracellular amastigotes infected in human THP-1 derived macrophage cells; assay type: toxicity, cell-based; conditions: read-out: Ratio CC50/EC50
[23] = test system: Leishmania infantum; assay: Antileishmanial activity against Leishmania infantum MCAN/ES/89/IPZ229/1/89 axenic amastigotes assessed as reduction in parasite growth treated for 24 hrs by PI staining based flow cytometry; assay type: functional, organism-based; conditions: MCAN/ES/89/IPZ229/1/89, 24 h
[24] = test system: Trypanosoma brucei; assay: Antitrypanosomal activity against Trypanosoma brucei assessed as parasite growth inhibition; assay type: functional, organism-based
[25] = test system: Leishmania braziliensis; assay: Antileishmanial activity against Leishmania braziliensis MHOM/BR/75/M2904 promastigotes assessed as reduction in cell viability incubated for 48 hrs by resazurin staining based assay; assay type: functional, organism-based; conditions: MHOM/BR/75/M2904, 48 h
[26] = test system: Leishmania donovani; assay: Antileishmanial activity against Leishmania donovani promastigotes infected in golden hamster assessed as reduction in parasite load in spleen at 20 mg/kg administered twice per week for 4 weeks relative to control; assay type: functional; design: scale not given: the % may be the effect or the level left
[27] = test system: Leishmania infantum; assay: Antileishmanial activity against Leishmania infantum axenic amastigotes (MCAN/ES/89/IPZ229/1/89) assessed as inhibition of parasite proliferation measured after 24 hrs by resazurin dye based fluorescence analysis; assay type: functional, organism-based; conditions: MCAN/ES/89/IPZ229/1/89, 24 h
[28] = test system: Leishmania donovani; assay: Antileishmanial activity against Leishmania donovani promastigotes infected in golden hamster assessed as reduction in parasite load in liver at 20 mg/kg administered twice per week for 4 weeks relative to control; assay type: functional; design: scale not given: the % may be the effect or the level left
[29] = test system: Leishmania amazonensis; assay: Antileishmanial activity against Leishmania amazonensis MHOM/BR/1989/166MJO promastigotes infected in mouse peritoneal macrophage assessed as inhibition of parasite growth measured for 24 hrs by MTT assay; assay type: functional, organism-based; conditions: Peritoneal macrophage cell
[30] = test system: Leishmania infantum; assay: Antileishmanial activity against Leishmania infantum MHOM/BR/1972/BH46 amastigotes assessed as reduction in cell viability measured for 48 hrs by PI staining based flow cytometry analysis; assay type: functional, organism-based; conditions: MHOM/BR/1972/BH46, 48 h
[31] = test system: Leishmania infantum; assay: Antileishmanial activity against Leishmania infantum MHOM/BR/1972/BH46 promastigotes assessed as reduction in parasite viability measured for 48 hrs by PI staining based flow cytometry analysis; assay type: functional, organism-based; conditions: MHOM/BR/1972/BH46, 48 h
[32] = test system: Leishmania amazonensis; assay: Antileishmanial activity against Leishmania amazonensis MHOM/BR/71973/M2269 promastigotes assessed as reduction in parasite viability measured for 48 hrs PI staining based flow cytometry analysis; assay type: functional, organism-based; conditions: MHOM/BR/71973, 48 h
[33] = test system: Leishmania braziliensis; assay: Antileishmanial activity against Leishmania braziliensis promastigotes assessed as reduction in parasite viability after 72 hrs by CCK-8 assay; assay type: functional, organism-based
[34] = test system: Leishmania amazonensis; assay: Antileishmanial activity against Leishmania amazonensis promastigotes assessed as reduction in parasite viability after 72 hrs by CCK-8 assay; assay type: functional, organism-based
[35] = test system: Leishmania donovani; assay: Antileishmanial activity against Leishmania donovani Ag83 promastigotes infected in BALB/c mouse assessed as reduction in parasite infection at 5 to 20 mg/kg by propidium iodide staining analysis; assay type: functional, organism-based

**Q.** Which Activity [1] does the source give for `CC(C)Oc1cc(OCCCCCCCCn2ccnc2)ccc1NC(=N)c1ccccn1` here?
**A.** 33%

**Q.** And the IC50 [2]?
**A.** 0.53 µM

**Q.** With `Cc1cc(OCCCCCNC(C)(C)C)cc2oc3cc(OCCCCCNC(C)(C)C)cc(O)c3c(=O)c12` as the molecule, how does the IC50 [3] read?
**A.** 5.4 µM

**Q.** And the IC50 [4]?
**A.** 2.4 µM

**Q.** What about the IC50 [5] of the same molecule?
**A.** 15.5 µM

**Q.** Which IC50 [6] does the source give for `Cc1cc(Br)cc2c(/C=N/NC(=S)Nc3ccccc3)c[nH]c12` here?
**A.** 5.6 µM

**Q.** With `O=C(Cn1cnc2cc(Cl)ccc2c1=O)n1cnc2cc(Cl)ccc2c1=O` as the molecule, how does the IC50 at 96 h [7] read?
**A.** 0.03 µM

**Q.** And the Activity [8]?
**A.** 29%

**Q.** Which EC50 [9] does the source give for `CCOC(=O)c1cc2c([nH]c3ccccc32)c(-c2cc3ccccc3n3nnnc23)n1` here?
**A.** 10.2 µM

**Q.** And the CC50 [10]?
**A.** 27.9 µM

**Q.** What about the EC50 [11] of the same molecule?
**A.** 3.36 µM

**Q.** Which CC50 at 72 h [12] does the source give for `COc1cc(/C=C2/Oc3cc(O)ccc3C2=O)cc(OC)c1` here?
**A.** > 200 µM

**Q.** What about the CC50 at 72 h [13] of the same molecule?
**A.** 96.9 µM

**Q.** For `O=c1c2ccccc2nc(/C=C/c2ccc([N+](=O)[O-])cc2)n1-c1ccccc1`, which IC50 [14] is on record?
**A.** 0.02 µM

**Q.** For `COc1ccc(C(=O)NC(=S)Nc2nc(-c3ccccc3)c(C)s2)cc1`, which IC50 [15] is on record?
**A.** 84.8 µM

**Q.** Which IC50 [16] does the source give for `NC(=S)N/N=C(/C=C/c1cccnc1)c1cccc(NC(=O)Nc2ccc(Cl)cc2)c1` here?
**A.** 3.81 µM

**Q.** With `NC(=O)N/N=C/c1ccc(Oc2no[n+]([O-])c2-c2ccccc2)cc1` as the molecule, how does the CC50 at 24 h [17] read?
**A.** 500 µM

**Q.** And the EC50 [18]?
**A.** 3.6 µM

**Q.** And the Activity [19]?
**A.** 90%

**Q.** What about the Activity [20] of the same molecule?
**A.** 90%

**Q.** What does the source list for `Nc1ccnn1C(=O)C1CCC2(CC1)OOC1(O2)C2CC3CC(C2)CC1C3` (stereo not given)?
**A.** IC50 [21]: 219 µM; selectivity ratio [22]: < 5; IC50 [23]: 219 µM

**Q.** For `CCCc1cn(CCN2CCN(C(=O)c3c(C)nc4ccc(C)cn34)CC2)nn1`, which IC50 [24] is on record?
**A.** 0.72 µM

**Q.** Which IC50 [25] does the source give for `CCCCCCCCCn1cc(COC(C)=O)[n+](C)n1` here?
**A.** 4.55 µM

**Q.** And the Activity [26]?
**A.** 59.8%

**Q.** And the IC50 [27]?
**A.** 5.36 µM

**Q.** What about the Activity [28] of the same molecule?
**A.** 26.88%

**Q.** With `COc1cc(C(=O)/C=C/c2ccc([N+](=O)[O-])cc2)c(C(C)=O)c2c(OC)cccc12` as the molecule, how does the IC50 [29] read?
**A.** 18.5 µM

**Q.** For `C=CCc1cc(OC)c2oc(=O)c(C(=O)c3ccccc3)cc2c1`, which IC50 [30] is on record?
**A.** 18 µM

**Q.** What about the IC50 [31] of the same molecule?
**A.** 26.7 µM

**Q.** And the IC50 [32]?
**A.** 82 µM

**Q.** With `COc1cc(OC)c(C(=O)/C=C/c2cccc(C)c2)c([N+](=O)[O-])c1` as the molecule, how does the EC50 [33] read?
**A.** 1.45 µM

**Q.** What about the EC50 [34] of the same molecule?
**A.** 0.42 µM

**Q.** For `O=C(Nc1cncs1)C(c1ccccc1)c1ccc(Cl)cc1` (stereo not given), which IC50 [35] is on record?
**A.** 3.2 µM
